Experiment [1] has as its target Vascular endothelial growth factor receptor 3 (Homo sapiens) (UniProt P35916). Briefly: Inhibition of recombinant human Flt4 (800 to end residues) at 1 uM using GGEEEEYFELVKKKK as substrate after 40 mins in presence of [gamma-33P]ATP by scintillation counting method.
The target in experiment [2] is Calcium/calmodulin-dependent protein kinase type 1B (Homo sapiens) (UniProt Q6P2M8). As to the kind of experiment: Inhibition of recombinant full-length human CAMK1beta at 1 uM using KKLRRTLSFAEPG as substrate after 40 mins in presence of [gamma-33P]ATP by scintillation counting method.
The target of experiment [3] is Mitogen-activated protein kinase 1 (Mus musculus) (UniProt P63085). As to the kind of experiment: Inhibition of recombinant full-length mouse MAPK2 at 1 uM using myelin basic protein as substrate after 40 mins in presence of [gamma-33P]ATP by scintillation counting method.
In experiment [4] the target is Platelet-derived growth factor receptor beta (Homo sapiens) (UniProt P09619). As to the kind of experiment: Inhibition of recombinant human PDGFRbeta (557 to end residues) at 1 uM using poly(Glu,Tyr) 4:1 as substrate after 40 mins in presence of [gamma-33P]ATP by scintillation counting method.
For experiment [5], the target named is LIM domain kinase 1 (Homo sapiens) (UniProt P53667). Briefly: Inhibition of recombinant human LIMK1 (285 to 638 residues) at 1 uM using cofilin as substrate after 40 mins in presence of [gamma-33P]ATP by scintillation counting method.
Experiment [6] addresses Ephrin type-A receptor 4 (Homo sapiens) (UniProt P54764). As to the kind of experiment: Inhibition of recombinant human EPHA4 (601 to 892 residues) at 1 uM using poly(Glu,Tyr) 4:1 as substrate after 40 mins in presence of [gamma-33P]ATP by scintillation counting method.
The target of experiment [7] is Ephrin type-B receptor 4 (Homo sapiens) (UniProt P54760). As to the kind of experiment: Inhibition of recombinant human EPHB4 (561 to end residues) at 1 uM using poly(Glu,Tyr) 4:1 as substrate after 40 mins in presence of [gamma-33P]ATP by scintillation counting method.
In experiment [8] the target is Tyrosine-protein kinase Yes (Homo sapiens) (UniProt P07947). Briefly: Inhibition of recombinant full-length human Yes at 1 uM using poly(Glu,Tyr) 4:1 as substrate after 40 mins in presence of [gamma-33P]ATP by scintillation counting method.
The target of experiment [9] is Serine/threonine-protein kinase 17A (Homo sapiens) (UniProt Q9UEE5). Briefly: Inhibition of recombinant full-length human DRAK1 at 1 uM using KKLNRTLSFAEPG as substrate after 40 mins in presence of [gamma-33P]ATP by scintillation counting method.
Experiment [10] concerns the target Rhodopsin kinase GRK1 (Homo sapiens) (UniProt Q15835). As to the kind of experiment: Inhibition of recombinant full-length human GRK1 at 1 uM using KKKKERLLDDRHDSGLDSMKDEE as substrate after 40 mins in presence of [gamma-33P]ATP by scintillation counting method.
Experiment [11] deals with Activin receptor type-1B (Homo sapiens) (UniProt P36896). As to the kind of experiment: Inhibition of recombinant human ALK4 (150 to end residues) at 1 uM using casein as substrate after 40 mins in presence of [gamma-33P]ATP by scintillation counting method.
The target in experiment [12] is Protein kinase C beta type (Homo sapiens) (UniProt P05771). Briefly: Inhibition of recombinant human PKCbeta1 (2 to end residues) at 1 uM using histone H1 as substrate after 40 mins in presence of [gamma-33P]ATP by scintillation counting method.
In experiment [13] the target is Mitogen-activated protein kinase kinase kinase 2 (Homo sapiens) (UniProt Q9Y2U5). Briefly: Inhibition of recombinant full-length human MEKK2 at 1 uM using myelin basic protein as substrate after 40 mins in presence of [gamma-33P]ATP by scintillation counting method.
For experiment [14], the target named is Serine/threonine-protein kinase WNK3 (Homo sapiens) (UniProt Q9BYP7). As to the kind of experiment: Inhibition of recombinant human WNK3 (1 to 434 residues) at 1 uM using myelin basic protein as substrate after 40 mins in presence of [gamma-33P]ATP by scintillation counting method.
For experiment [15], the target named is 5'-AMP-activated protein kinase catalytic subunit alpha-1 (Homo sapiens) (UniProt Q13131). As to the kind of experiment: Inhibition of recombinant full-length human AMPKalpha1 at 1 uM using AMARAASAAALARRR as substrate after 40 mins in presence of [gamma-33P]ATP by scintillation counting method.
Experiment [16] has as its target Macrophage colony-stimulating factor 1 receptor (Homo sapiens) (UniProt P07333). As to the kind of experiment: Inhibition of recombinant human Fms (538 to end residues) at 1 uM using KKKSPGEYVNIEFG as substrate after 40 mins in presence of [gamma-33P]ATP by scintillation counting method.
For experiment [17], the target named is Serine/threonine-protein kinase Sgk1 (Homo sapiens) (UniProt O00141). Briefly: Inhibition of recombinant human SGK (60 to end residues) at 1 uM using GRPRTSSFAEGKK as substrate after 40 mins in presence of [gamma-33P]ATP by scintillation counting method.
Experiment [18] concerns the target Mitogen-activated protein kinase 1 (Homo sapiens) (UniProt P28482). Briefly: Inhibition of recombinant full-length human MAPK1 at 1 uM using myelin basic protein as substrate after 40 mins in presence of [gamma-33P]ATP by scintillation counting method.
For experiment [19], the target named is Serine/threonine-protein kinase tousled-like 1 (Homo sapiens) (UniProt Q9UKI8). Briefly: Inhibition of recombinant full-length human TLK1 at 1 uM using casein as substrate after 40 mins in presence of [gamma-33P]ATP by scintillation counting method.
The species named for a further experiment is Mus musculus. As to the kind of experiment: Inhibition of recombinant full-length mouse p110a/recombinant p65a (1 to 571 residues) at 1 uM using phosphatidylinositol 4,5-bisphosphate as substrate after 40 mins in presence of [gamma-33P]ATP by scintillation counting method.
The subject of the next experiment is Saccharomyces cerevisiae. Briefly: Inhibition of recombinant Saccharomyces cerevisiae CK1alpha (2 to 298 residues) at 1 uM using KRRRALS(p)VASLPGL as substrate after 40 mins in presence of [gamma-33P]ATP by scintillation counting method.
Experiment [20] deals with Hepatocyte growth factor receptor (Homo sapiens), P08581 [D1246N]. Briefly: Inhibition of recombinant human Met D1246N mutant (974 to end residues) at 1 uM using KKKGQEEEYVFIE as substrate after 40 mins in presence of [gamma-33P]ATP by scintillation counting method.
Experiment [21] addresses Homeodomain-interacting protein kinase 1 (Homo sapiens) (UniProt Q86Z02). Briefly: Inhibition of recombinant human HIPK1 (158 to 555 residues) at 1 uM using myelin basic protein as substrate after 40 mins in presence of [gamma-33P]ATP by scintillation counting method.
In experiment [22] the target is Serine/threonine-protein kinase DCLK3 (Homo sapiens) (UniProt Q9C098). Briefly: Inhibition of recombinant human DCAMKL3 (345 to end residues) at 1 uM using KKLNRTLSFAEPG as substrate after 40 mins in presence of [gamma-33P]ATP by scintillation counting method.

Experimental findings from ChEMBL document CHEMBL4190187, “Discovery of pyrazolopyrimidine derivatives as novel inhibitors of ataxia telangiectasia and rad3 related protein (ATR)” (Bioorg Med Chem Lett, 2017) are described below.

By inhibition is commonly meant the drop in the measured response relative to a control, in per cent.

Chain of 5'-AMP-activated protein kinase catalytic subunit alpha-1 (Homo sapiens) (Q13131 whole entry, looked up): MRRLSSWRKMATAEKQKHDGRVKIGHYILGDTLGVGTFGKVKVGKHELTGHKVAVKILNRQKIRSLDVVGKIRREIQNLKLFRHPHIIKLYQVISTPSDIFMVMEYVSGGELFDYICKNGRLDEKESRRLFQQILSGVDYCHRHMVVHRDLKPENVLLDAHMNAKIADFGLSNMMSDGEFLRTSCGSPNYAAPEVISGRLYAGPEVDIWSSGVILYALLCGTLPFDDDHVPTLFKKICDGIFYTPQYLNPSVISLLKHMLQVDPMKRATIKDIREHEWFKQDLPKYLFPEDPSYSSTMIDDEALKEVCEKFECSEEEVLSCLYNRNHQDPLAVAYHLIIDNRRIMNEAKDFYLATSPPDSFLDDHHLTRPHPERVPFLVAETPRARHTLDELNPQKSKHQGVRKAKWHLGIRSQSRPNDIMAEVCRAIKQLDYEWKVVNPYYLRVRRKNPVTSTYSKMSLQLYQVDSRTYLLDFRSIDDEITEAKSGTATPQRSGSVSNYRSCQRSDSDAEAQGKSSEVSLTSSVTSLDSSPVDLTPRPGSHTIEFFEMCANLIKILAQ
Chain of Mitogen-activated protein kinase 1 (Mus musculus) (P63085 whole entry): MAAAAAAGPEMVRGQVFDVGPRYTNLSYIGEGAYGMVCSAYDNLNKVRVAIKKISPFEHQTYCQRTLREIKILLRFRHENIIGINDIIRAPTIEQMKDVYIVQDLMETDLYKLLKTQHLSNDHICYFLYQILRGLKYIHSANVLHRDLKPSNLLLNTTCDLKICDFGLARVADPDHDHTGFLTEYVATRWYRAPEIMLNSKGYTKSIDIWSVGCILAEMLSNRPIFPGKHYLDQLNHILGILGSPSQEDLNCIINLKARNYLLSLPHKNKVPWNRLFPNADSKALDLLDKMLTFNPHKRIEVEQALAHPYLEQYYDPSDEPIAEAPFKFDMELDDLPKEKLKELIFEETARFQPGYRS
Chain of Macrophage colony-stimulating factor 1 receptor (Homo sapiens) (P07333 whole entry): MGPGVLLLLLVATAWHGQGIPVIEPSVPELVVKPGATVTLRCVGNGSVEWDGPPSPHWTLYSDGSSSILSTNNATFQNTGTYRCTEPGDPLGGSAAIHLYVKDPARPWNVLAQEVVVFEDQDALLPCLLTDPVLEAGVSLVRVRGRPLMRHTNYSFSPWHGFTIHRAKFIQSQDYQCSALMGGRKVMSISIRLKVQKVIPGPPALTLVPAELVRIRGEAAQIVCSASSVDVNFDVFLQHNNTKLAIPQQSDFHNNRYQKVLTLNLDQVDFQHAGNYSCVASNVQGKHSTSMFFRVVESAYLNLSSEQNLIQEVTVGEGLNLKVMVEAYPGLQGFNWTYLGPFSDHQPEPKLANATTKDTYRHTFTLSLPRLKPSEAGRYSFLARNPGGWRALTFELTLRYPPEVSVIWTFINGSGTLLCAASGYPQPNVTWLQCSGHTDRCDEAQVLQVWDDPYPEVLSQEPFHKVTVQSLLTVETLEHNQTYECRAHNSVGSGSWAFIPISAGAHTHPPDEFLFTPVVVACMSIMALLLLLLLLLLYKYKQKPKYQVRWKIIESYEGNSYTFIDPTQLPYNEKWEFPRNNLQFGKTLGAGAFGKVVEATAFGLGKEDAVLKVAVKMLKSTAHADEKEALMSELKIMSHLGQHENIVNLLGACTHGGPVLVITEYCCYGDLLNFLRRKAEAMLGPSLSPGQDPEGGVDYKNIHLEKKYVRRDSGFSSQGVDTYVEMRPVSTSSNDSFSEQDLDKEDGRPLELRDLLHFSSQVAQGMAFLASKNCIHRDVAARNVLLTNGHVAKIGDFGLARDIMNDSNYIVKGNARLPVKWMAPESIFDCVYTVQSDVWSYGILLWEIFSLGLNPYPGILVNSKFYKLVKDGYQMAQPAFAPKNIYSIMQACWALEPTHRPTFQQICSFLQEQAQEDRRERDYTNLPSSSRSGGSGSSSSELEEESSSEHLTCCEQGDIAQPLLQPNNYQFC
Chain of Activin receptor type-1B (Homo sapiens) (P36896 whole entry): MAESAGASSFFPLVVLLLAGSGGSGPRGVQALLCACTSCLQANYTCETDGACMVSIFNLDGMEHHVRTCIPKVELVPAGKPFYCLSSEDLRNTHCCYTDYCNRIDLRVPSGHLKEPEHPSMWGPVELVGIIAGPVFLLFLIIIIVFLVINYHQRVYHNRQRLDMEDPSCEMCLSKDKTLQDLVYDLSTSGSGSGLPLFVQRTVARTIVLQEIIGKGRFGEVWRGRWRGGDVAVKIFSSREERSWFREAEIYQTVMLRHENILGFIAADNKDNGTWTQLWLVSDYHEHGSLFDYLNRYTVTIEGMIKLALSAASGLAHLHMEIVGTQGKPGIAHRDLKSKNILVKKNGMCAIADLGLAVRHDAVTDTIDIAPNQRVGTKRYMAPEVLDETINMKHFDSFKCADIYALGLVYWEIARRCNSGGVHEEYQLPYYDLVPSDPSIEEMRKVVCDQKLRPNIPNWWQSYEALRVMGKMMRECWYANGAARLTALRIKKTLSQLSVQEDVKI
Chain of Mitogen-activated protein kinase kinase kinase 2 (Homo sapiens) (Q9Y2U5 whole entry, the tested form may be a part): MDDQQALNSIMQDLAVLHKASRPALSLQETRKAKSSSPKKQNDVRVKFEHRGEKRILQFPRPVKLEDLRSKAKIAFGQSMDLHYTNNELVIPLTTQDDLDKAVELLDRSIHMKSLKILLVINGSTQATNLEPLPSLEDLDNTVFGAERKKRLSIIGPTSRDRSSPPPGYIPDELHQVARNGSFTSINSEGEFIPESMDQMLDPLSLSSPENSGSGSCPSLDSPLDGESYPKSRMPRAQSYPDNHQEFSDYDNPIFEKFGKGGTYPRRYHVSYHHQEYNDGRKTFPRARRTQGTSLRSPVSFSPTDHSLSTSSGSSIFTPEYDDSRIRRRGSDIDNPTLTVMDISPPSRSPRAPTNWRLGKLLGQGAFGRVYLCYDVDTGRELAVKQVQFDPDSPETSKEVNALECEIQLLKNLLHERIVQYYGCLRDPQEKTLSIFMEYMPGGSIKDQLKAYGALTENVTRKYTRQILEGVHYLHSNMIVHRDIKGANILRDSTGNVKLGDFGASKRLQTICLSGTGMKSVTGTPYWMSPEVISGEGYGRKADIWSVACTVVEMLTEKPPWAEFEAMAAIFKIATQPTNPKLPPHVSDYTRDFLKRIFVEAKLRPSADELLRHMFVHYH
Chain of Platelet-derived growth factor receptor beta (Homo sapiens) (P09619 whole entry, the tested form may be a part): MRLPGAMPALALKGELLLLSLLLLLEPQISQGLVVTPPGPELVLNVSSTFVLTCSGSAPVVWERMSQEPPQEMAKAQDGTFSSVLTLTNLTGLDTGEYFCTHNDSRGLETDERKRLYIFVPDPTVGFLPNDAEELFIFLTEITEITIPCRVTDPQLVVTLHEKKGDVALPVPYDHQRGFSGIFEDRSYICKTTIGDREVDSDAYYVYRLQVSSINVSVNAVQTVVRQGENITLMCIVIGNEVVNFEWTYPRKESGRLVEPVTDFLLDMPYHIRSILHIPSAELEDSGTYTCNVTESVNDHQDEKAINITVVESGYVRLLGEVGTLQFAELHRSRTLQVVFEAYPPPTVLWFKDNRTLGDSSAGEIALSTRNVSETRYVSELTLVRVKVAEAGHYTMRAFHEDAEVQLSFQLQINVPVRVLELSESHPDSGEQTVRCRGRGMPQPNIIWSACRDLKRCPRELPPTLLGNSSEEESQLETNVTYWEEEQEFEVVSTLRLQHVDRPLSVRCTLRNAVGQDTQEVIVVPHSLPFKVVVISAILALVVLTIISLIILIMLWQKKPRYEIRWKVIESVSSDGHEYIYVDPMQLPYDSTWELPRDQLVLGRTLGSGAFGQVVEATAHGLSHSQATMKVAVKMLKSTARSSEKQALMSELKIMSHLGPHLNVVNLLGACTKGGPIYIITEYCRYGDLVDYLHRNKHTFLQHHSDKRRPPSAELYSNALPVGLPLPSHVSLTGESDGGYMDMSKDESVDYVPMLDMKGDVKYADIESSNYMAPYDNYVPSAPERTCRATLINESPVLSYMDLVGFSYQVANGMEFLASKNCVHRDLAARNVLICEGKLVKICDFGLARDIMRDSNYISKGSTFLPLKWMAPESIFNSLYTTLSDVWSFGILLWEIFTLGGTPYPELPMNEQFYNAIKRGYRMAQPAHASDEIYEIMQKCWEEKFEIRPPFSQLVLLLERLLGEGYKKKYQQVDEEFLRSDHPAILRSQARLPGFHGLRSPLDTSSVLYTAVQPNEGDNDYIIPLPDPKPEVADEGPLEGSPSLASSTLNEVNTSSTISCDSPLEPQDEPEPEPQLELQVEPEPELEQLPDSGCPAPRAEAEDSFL
Chain of Calcium/calmodulin-dependent protein kinase type 1B (Homo sapiens) (Q6P2M8 whole entry): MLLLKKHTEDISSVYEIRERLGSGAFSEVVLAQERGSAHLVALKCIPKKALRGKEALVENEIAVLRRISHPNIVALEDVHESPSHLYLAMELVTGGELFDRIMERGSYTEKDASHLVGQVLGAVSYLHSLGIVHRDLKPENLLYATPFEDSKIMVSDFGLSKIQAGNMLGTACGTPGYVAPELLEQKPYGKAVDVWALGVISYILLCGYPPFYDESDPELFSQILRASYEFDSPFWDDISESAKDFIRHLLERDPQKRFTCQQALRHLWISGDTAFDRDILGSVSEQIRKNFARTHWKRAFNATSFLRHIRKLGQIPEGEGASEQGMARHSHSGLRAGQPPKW
Chain of Serine/threonine-protein kinase Sgk1 (Homo sapiens) (O00141 whole entry): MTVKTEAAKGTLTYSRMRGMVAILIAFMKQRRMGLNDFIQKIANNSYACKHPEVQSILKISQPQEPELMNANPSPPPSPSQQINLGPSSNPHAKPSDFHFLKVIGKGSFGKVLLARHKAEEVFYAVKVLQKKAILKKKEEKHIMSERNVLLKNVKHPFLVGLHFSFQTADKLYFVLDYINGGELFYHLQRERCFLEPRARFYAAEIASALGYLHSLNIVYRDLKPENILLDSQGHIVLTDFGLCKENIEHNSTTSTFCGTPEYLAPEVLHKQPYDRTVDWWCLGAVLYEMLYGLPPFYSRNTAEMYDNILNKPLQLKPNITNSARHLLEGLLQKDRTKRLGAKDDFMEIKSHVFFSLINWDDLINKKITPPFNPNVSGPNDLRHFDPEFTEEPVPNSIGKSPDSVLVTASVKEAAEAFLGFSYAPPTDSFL

With `CS(=O)(=O)c1ccc(-n2nc(-c3cnc4[nH]ccc4c3)c3c(N)ncnc32)cc1`, the inhibition was 91% in experiment [1]; -5% in [2]; 1% in experiment [3]; -7% in experiment [4]; 24% in [5]; 1% in [6]. The inhibition in [7] is 27%; in experiment [8] it was 92%; in experiment [9], 31%; in experiment [10], 10%; in [11], 80%; in [12], 6%. Besides, the inhibition in experiment [13] was 5%; in [14] it was 43%; in [15], -9%; in [16], 76%; in experiment [17] it was 2%; in [18], 2%. Besides, the inhibition in [19] is 3%; in the experiment listed under Mus musculus, 7%; in the experiment with Saccharomyces cerevisiae, 38%; in experiment [20] it was 3%; in experiment [21] it was -2%; in experiment [22], -8%.
